Measured values reported in US20160120915A1, “METHODS FOR MANIPULATING IMMUNE RESPONSES BY ALTERING MICROBIOTA” (NEW YORK UNIVERSITY, priority 2013, published 2016).
Where a name gives a salt, the structure may show the parent alone.

Tested on: terminal ileum
Assay: NOD: ileal gene expression profiling by microarray
Assay type: in vivo, NOD mice
Details: for differentially regulated genes that were down: PAT vs Control
Protocol: Ileal gene expression profiling of 6-week control, STAT, and PAT animal groups, was performed using the Affymetrix Genechip system (Affymetrix, Santa Clara Calif.). Total RNA quality and quantity were determined using the Nanodrop ND-1000, agarose gel, and Agilent 2100 Bioanalyser. Total RNA (100 ng) was used to prepare cDNA following the Affymetrix 3′IVT Express Kit labeling protocol (Affymetrix). Standardized array processing procedures recommended by Affymetrix were performed, including hybridization, fluidics processing and scanning of the Affymetrix Mouse Genome 430 2.0 Array chips. The affy package in R was used to normalize the raw data (Affymetrix CEL files) by Robust Multichip Average (RMA) algorithm. Then the limma package was used to identify regulated genes between groups and generate lists of differentially expressed genes using linear models and empirical Bayes method with an FDR-adjusted p-value cut-off of p<0.05 (Smyth, 2004, Statistical Applications in Genetics and Molecular Biology 3, No. 1, Article 3).
RNA was extracted from the terminal ileum of the 6-week old NOD mice. Raw probe intensities were normalized by the Robust Multichip Average (RMA) algorithm using affy package in R and then the limma package was used to identify regulated genes using linear models and empirical Bayes method with an FDR-adjusted p-value cut off of p<0.05 (Smyth 2004, Statistical Applications in Genetics and Molecular Biology 3, No. 1, Article 3.).

[1] = terminal ileum, NOD male mice, microarray
[2] = terminal ileum, NOD male mice, microarray, probe with greatest fold change

Q: Which results are given for `CC[C@H]1OC(=O)C[C@@H](O)[C@H](C)[C@@H](O[C@@H]2O[C@H](C)[C@@H](O[C@H]3C[C@@](C)(O)[C@@H](O)[C@H](C)O3)[C@H](N(C)C)[C@H]2O)[C@@H](CC=O)C[C@@H](C)C(=O)/C=C/C(C)=C/[C@@H]1CO[C@@H]1O[C@H](C)[C@@H](O)[C@@H](OC)[C@H]1OC` [Tylosin, Tylosin tartrate]?
A: differentially regulated genes that were down (NOD females): 42.1%; differentially regulated genes that were down (NOD males): 69.3%; log2 fold change (PAT/control), Arl5b [1]: 2.42; log2 fold change (PAT/control), Bhmt [1]: −1.52; log2 fold change (PAT/control), Ccl20 [1]: −0.86; log2 fold change (PAT/control), Clec2d [1]: −0.65; log2 fold change (PAT/control), Dio1 [1]: −1.34; log2 fold change (PAT/control), Dusp14 [1]: 2.22; log2 fold change (PAT/control), Edn2 [1]: −1.67; log2 fold change (PAT/control), Ereg [1]: 1.73; log2 fold change (PAT/control), G6pc [1]: −2.85; log2 fold change (PAT/control), Gjb3 [1]: 0.77; log2 fold change (PAT/control), Gzma [1]: −1.48; log2 fold change (PAT/control), Il1rn [1]: 1.70; log2 fold change (PAT/control), Il17rd [1]: −0.58; log2 fold change (PAT/control), Irf1 [1]: −1.14; log2 fold change (PAT/control), Maff [1]: 2.22; log2 fold change (PAT/control), Phlda1 [1]: 1.96; log2 fold change (PAT/control), S100a14 [1]: 1.00; log2 fold change (PAT/control), Saa1 [1]: −4.00; log2 fold change (PAT/control), Saa2 [1]: −1.44; log2 fold change (PAT/control), Tifa [1]: −1.32; log2 fold change (PAT/control), Tppp [1]: −1.35; log2 fold change (PAT/control), Acsl3 [2]: 1.59; log2 fold change (PAT/control), Ccl28 [2]: −0.64; log2 fold change (PAT/control), Cd38 [2]: −1.02; log2 fold change (PAT/control), Chka [2]: 1.97; log2 fold change (PAT/control), Flrt3 [2]: 2.56; log2 fold change (PAT/control), Il1rl1 [2]: 1.64; log2 fold change (PAT/control), Klf4 [2]: 0.86; log2 fold change (PAT/control), Slc2a1 [2]: 1.26; log2 fold change (PAT/control), Socs2 [2]: −0.77; log2 fold change (PAT/control), Tnfrsf12a [2]: 1.72; log2 fold change (PAT/control), Tnfsf10 [2]: −1.46; log2 fold change (PAT/control), Zfand2a [2]: 2.11; log2 fold change (PAT/control), Rab30 (terminal ileum, PAT-treated NOD male mice, 6-week, microarray): 4.27; log2 fold change (PAT/control), Areg (terminal ileum, PAT-treated NOD male mice, microarray): 3.94
